IC50 data for 15 molecules are collected here from US8389527B2, “Substituted imidazopyridazines useful as kinase inhibitors” (Bristol-Myers Squibb Company, priority 2008, dated 2013).

In test [1] the target is T1, recombinant CK2A1 (Homo sapiens, UniProt P68400).
T1 construct: purchased Invitrogen
Kind of test: CK2 kinase assay (CK2A1), [γ-33P]ATP filter-binding. It is filed as biochemical. The settings on record: recombinant CK2A1 10 nM, ATP 25 μM, 10 μM peptide substrate, 30° C. 1 h. How it is done:
(§1) The effectiveness of compounds of the present invention as inhibitors of protein kinases can be readily tested by assays known to those skilled in the art. For example, in vitro protein kinase assays may be conducted with a relevant purified protein kinase and an appropriate synthetic substrate to determine the inhibitory activities of the compounds. […] Reaction mixtures were incubated at 30° C. for 1 h, and reaction products were captured by binding to phosphocellulose (P81) filter plates. Incorporation of radioactive phosphate into the peptide substrate was determined by liquid scintillation counting. The potency of compounds in inhibiting CK2 is expressed as IC50, defined as the concentrations of compounds required to inhibit the enzymatic activity by 50%.

Test [2] has as its target T2, recombinant CK2A2 (Homo sapiens, UniProt P19784).
T2 construct: purchased Upstate Biotechnology
In words: CK2 kinase assay (CK2A2), [γ-33P]ATP filter-binding. It is filed as biochemical. The settings on record: recombinant CK2A2 5 nM, ATP 5 μM, 10 μM peptide substrate, 30° C. 1 h. On the procedure: as §1

Test [3] has as its system HCT116. In words: Cell proliferation inhibition assay (MTT, CellTiter96). Particulars: Homo sapiens, HCT-116; HCT116 cells, 72 h with compound, MTT readout. It is filed as cell-based. How it is done:
B. Cell Proliferation Inhibition Assay
Compounds were evaluated for their ability to inhibit cell proliferation, using an assay that measures mitochondrial metabolic activity, that is directly correlated with cell numbers. Cells were plated at 2000 cells/well in 96-well plates and were cultured for 24 h in RPMI-1640 supplemented with 2% fetal bovine serum, before test compounds were added. Compounds were diluted in culture medium such that the final concentration of dimethyl sulfoxide never exceeded 1%. Following the addition of compounds, the cells were cultured for an additional 72 h before cell viability was determined by measuring the conversion of 3-(4,5-dimethylthiazol-2-yl)-2,5-diphenyltetrazolium bromide (MTT) dye using the CellTiter96 kit (Promega).

Each structure is given as a SMILES string. pIC50: −log10 of the molar value. Bounds are passed on as bounds.

T1 sequence (P68400 whole entry): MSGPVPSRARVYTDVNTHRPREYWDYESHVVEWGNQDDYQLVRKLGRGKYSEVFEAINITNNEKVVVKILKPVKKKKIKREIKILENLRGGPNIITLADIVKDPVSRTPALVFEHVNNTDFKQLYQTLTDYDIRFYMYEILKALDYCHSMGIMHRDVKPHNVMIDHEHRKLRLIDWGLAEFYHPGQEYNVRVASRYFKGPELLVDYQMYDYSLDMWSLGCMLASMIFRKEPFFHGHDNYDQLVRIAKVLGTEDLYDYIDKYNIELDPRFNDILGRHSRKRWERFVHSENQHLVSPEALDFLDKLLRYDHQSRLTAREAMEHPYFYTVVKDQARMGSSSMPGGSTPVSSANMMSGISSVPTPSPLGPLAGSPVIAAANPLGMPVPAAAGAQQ
T2 sequence (P19784 whole entry): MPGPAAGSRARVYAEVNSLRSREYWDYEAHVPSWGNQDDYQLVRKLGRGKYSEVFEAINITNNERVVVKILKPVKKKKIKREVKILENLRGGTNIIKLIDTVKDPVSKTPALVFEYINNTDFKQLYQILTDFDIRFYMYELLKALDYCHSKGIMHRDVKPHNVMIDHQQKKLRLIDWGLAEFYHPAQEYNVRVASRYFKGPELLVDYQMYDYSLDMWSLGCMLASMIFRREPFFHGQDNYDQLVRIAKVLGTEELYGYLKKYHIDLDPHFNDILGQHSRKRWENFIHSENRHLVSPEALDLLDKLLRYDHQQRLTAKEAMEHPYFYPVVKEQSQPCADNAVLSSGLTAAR

In the case of `O=C(Nc1ccnc(Cl)c1)c1cnc2c(NC3CC3)cc(NC3CC[S+]([O-])CC3)nn12` (stereo not drawn) [Example 572, 4-((3-((2-chloro-4-pyridinyl)carbamoyl)-8-(cyclopropylamino)imidazo[1,2-b]pyridazin-6-yl)amino)tetrahydro-2H-thiopyranium-1-olate], the pIC50 was 6.51 in test [1], 7.14 in test [2] and 6.10 in test [3].

Turning to `N#CCC(=O)N[C@H]1CC[C@H](Nc2cc(NC3CC3)c3ncc(C(=O)Nc4ccnc(Cl)c4)n3n2)CC1` [Example 34, N-(2-chloropyridin-4-yl)-6-((trans)-4-(2-cyanoacetamido)cyclohexylamino)-8-(cyclopropylamino)imidazo[1,2-b]pyridazine-3-carboxamide], the pIC50 in test [1] was 7.94; in test [2] it was 9.10; in test [3] it was 6.77.

Take `Cc1cc(Nc2cc(N[C@H]3CC[C@H](NC(=O)CC#N)CC3)nn3c(C(=O)Nc4ccnc(Cl)c4)cnc23)no1` [Example 560, N-(2-chloro-4-pyridinyl)-6-((trans-4-((cyanoacetyl)amino)cyclohexyl)amino)-8-((5-methyl-3-isoxazolyl)amino) imidazo[1,2-b]pyridazine-3-carboxamide]: the pIC50 was 7.90 in test [1], 9.10 in test [2] and 6.06 in test [3].

With `O=C(Nc1ccncc1F)c1cnc2c(NC3CC3)cc(N[C@H]3CC[C@H](NCC(O)CO)CC3)nn12` (stereo partly drawn) [Example 524, 8-(cyclopropylamino)-6-((trans-4-((2,3-dihydroxypropyl)amino)cyclohexyl)amino)-N-(3-fluoro-4-pyridinyl)imidazo [1,2-b]pyridazine-3-carboxamide], the pIC50 in test [1] is 7.68; in test [2], 8.40; in test [3], 5.94.

With `O=C(Nc1ccncc1F)c1cnc2c(Nc3cccc(N[C@H]4CC[C@H](O)CC4)n3)cc(N[C@H]3CC[C@H](O)CC3)nn12` [Example 45, N-(3-fluoro-4-pyridinyl)-6-((trans-4-hydroxycyclohexyl)amino)-8-((6-((trans-4-hydroxycyclohexyl)amino)-2-pyridinyl)amino)imidazo[1,2-b]pyridazine-3-carboxamide], the pIC50 in test [1] is 7.47; in test [2], 8.10; in test [3], 6.85.

Regarding `CCN(C)C(=O)N[C@H]1CC[C@H](Nc2cc(NC3CC3)c3ncc(C(=O)Nc4ccnc(Cl)c4)n3n2)CC1` [Example 278, N-(2-chloro-4-pyridinyl)-8-(cyclopropylamino)-6-((trans-4-((ethyl(methyl)carbamoyl)amino)cyclohexyl)amino)imidazo[1,2-b]pyridazine-3-carboxamide], the pIC50 in test [1] was 7.20; in test [2], 8.82; in test [3], 6.30.

With `N[C@H](Cc1cscn1)C(=O)N[C@H]1CC[C@H](Nc2cc(NC3CC3)c3ncc(C(=O)Nc4ccnc(Cl)c4)n3n2)CC1` (relative stereo) [Example 179, N-(2-chloro-4-pyridinyl)-8-(cyclopropylamino)-6-((trans-4-((3-(1,3-thiazol-4-yl)-D-alanyl)amino)cyclohexyl)amino)imidazo[1,2-b]pyridazine-3-carboxamide], the pIC50 in test [1] was 7.86; in test [2] it was 9.15; in test [3], 6.04.

For `CC(C)CC(=O)N[C@H]1CC[C@H](Nc2cc(NC3CC3)c3ncc(C(=O)Nc4ccnc(Cl)c4)n3n2)CC1` [Example 164, N-(2-chloro-4-pyridinyl)-8-(cyclopropylamino)-6-((trans-4-((3-methylbutanoyl)amino)cyclohexyl)amino) imidazo[1,2-b]pyridazine-3-carboxamide], the figures for the pIC50 in test [1], in test [2] and in test [3] were 7.64, 8.68 and less than 5.60, respectively.

As for `CC(=O)Nc1cccc(NC(=O)c2cnc3c(NC4CC4)cc(N[C@H]4CC[C@H](N)CC4)nn23)c1` [Example 83, N-(3-acetamidophenyl)-6-((trans)-4-aminocyclohexylamino)-8-(cyclopropylamino)imidazo[1,2-b]pyridazine-3-carboxamide], the pIC50 is 4.91 in test [1], 5.36 in test [2] and less than 6.00 in test [3].

With `O=C(Nc1ccnc(Cl)c1)c1cnc2c(NC3CC3)cc(N[C@H]3CC[C@H](NC(=O)C4COCCN4)CC3)nn12` (stereo partly drawn) [Example 198, N-(2-chloro-4-pyridinyl)-8-(cyclopropylamino)-6-((trans-4-((3-morpholinylcarbonyl)amino)cyclohexyl)amino)imidazo [1,2-b]pyridazine-3-carboxamide], the pIC50 in test [1] was 8.44; in test [2], 8.82; in test [3], 7.05.

`Cc1cc(Nc2cc(N[C@H]3CC[C@H](O)CC3)nn3c(C(=O)Nc4ccnc(Cl)c4)cnc23)nn1C` [Example 553, N-(2-chloro-4-pyridinyl)-8-((1,5-dimethyl-1H-pyrazol-3-yl)amino)-6-((trans-4-hydroxycyclohexyl)amino)imidazo[1,2-b]pyridazine-3-carboxamide]: the pIC50 in test [1] is 7.71; in test [2], 8.68; in test [3] it was 7.40.

With `CNC(C)(C)C(=O)N[C@H]1CC[C@H](Nc2cc(NC3CC3)c3ncc(C(=O)Nc4ccnc(Cl)c4)n3n2)CC1` [Example 159, N-(2-chloro-4-pyridinyl)-8-(cyclopropylamino)-6-((trans-4-((N,2-dimethylalanyl)amino)cyclohexyl)amino) imidazo[1,2-b]pyridazine-3-carboxamide], the figures for the pIC50 in test [1], in test [2] and in test [3] were 7.47, 8.68 and 6.55, respectively.

For `N[C@H]1CC[C@H](Nc2cc(NC3CCC3)c3ncc(C(=O)Nc4ccncc4F)n3n2)CC1` [Example 469, 6-((trans-4-aminocyclohexyl)amino)-8-(cyclobutylamino)-N-(3-fluoro-4-pyridinyl)imidazo [1,2-b]pyridazine-3-carboxamide], the pIC50 in test [1] was 7.72; in test [2], 8.30; in test [3], 7.30.

As for `O=C(Nc1ccncc1F)c1cnc2c(NC3CC3)cc(N[C@H]3CC[C@H](NC(=O)[C@H]4CCCN4)CC3)nn12` [Example 104, 8-(cyclopropylamino)-N-(3-fluoro-4-pyridinyl)-6-((trans-4-(D-prolylamino)cyclohexyl)amino)imidazo[1,2-b]pyridazine-3-carboxamide], the results for the pIC50 in test [1], in test [2] and in test [3] were 7.42, 8.00 and 6.70, respectively.

On to `C[C@@H](O)CC(=O)N[C@H]1CC[C@H](Nc2cc(NC3CC3)c3ncc(C(=O)Nc4ccnc(Cl)c4)n3n2)CC1` [Example 195, N-(2-chloro-4-pyridinyl)-8-(cyclopropylamino)-6-((trans-4-(((3R)-3-hydroxybutanoyl)amino)cyclohexyl)amino) imidazo[1,2-b]pyridazine-3-carboxamide], for which the pIC50 was 7.76 in test [1], 8.77 in test [2] and 6.66 in test [3].

For orientation: pIC50 means −log10 of the IC50, conventionally taken in molar units.
